The values that follow are results of earlier work, collected in patent EP3957303A1, “PHARMACEUTICAL COMBINATION PREPARATION COMPRISING EZETIMIBE AND LOSARTAN” (Hanmi Pharm. Co., Ltd., priority 2019, dated 2020).

Structures are written as SMILES.

As to `O=C1[C@H](CC[C@H](O)c2ccc(F)cc2)[C@@H](c2ccc(O)cc2)N1c1ccc(F)cc1` [Ezetimibe, 1-(4-fluorophenyl)-3(R)-[3-(4-fluorophenyl)-3(S)-hydroxypropyl]-4(S)-(4-hydroxyphenyl)-2-azetidinone], where the note is “under acidic to weakly basic conditions such as body fluids”, the saturation solubility result is recorded as “about 1 ppm”. Further, the solubility in water entry (water) was “practically insoluble in water”.
